# According to a melting point compilation (Tetko et al.; mined from patent text by program, amines drawn as free bases though some values may be those of a salt):
row,Compound,melting point
1,Oc1ccc(-c2cc3cc(O)cc(CBr)c3o2)cc1,337 to 339 °C
2,[N-]=[N+]=NC(C(=O)O)c1ccsc1 (centres undefined),58 to 59 °C
3,COC(=O)C(=O)c1cn(CCO)c2ccc(OCc3ccccc3)cc12,148 to 150 °C
4,COc1ccc(-c2cc(C(F)F)nn2-c2ccc(S(N)(=O)=O)cc2)cc1I,135 to 137 °C
5,COC(=O)c1ccc(C(O)=CC(=O)c2cc([Si](C)(C)C)ccc2O)cc1,130 to 131 °C
6,CS(=O)(=O)Oc1ccc(=O)[nH]n1,148 °C
7,Clc1ccc(OC2CN(C(c3ccccc3)c3ccccc3)C2)cc1Cl,114 to 115 °C
8,O=Cn1cc(Cl)c(-c2ccccc2C(F)(F)F)c1,75 to 78 °C
9,CCOC(=O)c1cn(C)c2cc(F)c(F)cc2c1=O,210 to 212 °C
10,COC(=O)CC[C@H](NC(=O)c1cc(CCC2CNc3nc(N)nc(O)c3C2)c[nH]1)C(=O)OC (some centres undefined),151 to 153 °C
11,COc1cc(C)nc(N(C)C(=O)NS(=O)(=O)c2c(Cl)cccc2Cl)n1,170 to 171 °C
12,O=C(NN1CC=CCC1)Oc1ccccc1,124 to 126 °C
13,CC(C)(C)C(=O)Nc1c(SC(F)(F)F)c(C#N)nn1-c1c(Cl)cc(C(F)(F)F)cc1Cl,172 to 174 °C
14,COc1cc(-c2cc3ccccc3[nH]2)cc(OC)c1OS(=O)(=O)c1ccccc1,150 °C
15,CCOC(=O)C(F)Sc1ccc(O)cc1 (centres undefined),72 °C
16,CC(C)(C)OC(=O)C[C@H](NC(=O)c1cccc(NC(=O)Cc2ccc(C(N)=S)cc2)c1)C(=O)N[C@@H](Cc1ccccc1)C(=O)OC(C)(C)C,99 °C
17,CC(=O)OC1C(N2CCCCC2)CC2C3CCC4CC(O)C(N5CCOCC5)CC4(C)C3CCC21C (centres undefined),177 to 184 °C
18,C=CCSc1nc(=O)n(-c2ccsc2)cc1F,125 to 127 °C
19,CC(=O)OCc1ccc(Sc2ccccc2C(=O)O)c([N+](=O)[O-])c1,150 to 151 °C
20,CN(C)CCc1cccc(OCCN2C(=O)c3ccccc3C2=O)c1,84 to 85 °C
21,CC(=O)NC[C@H]1CN(c2ccc3c(c2)CSCC3)C(=O)O1,139 to 140 °C

row,Compound,melting point
1,COP(=O)(Cc1cc(C)c(C)cc1CP(=O)(OC)OC)OC,66 to 69 °C
2,N#Cc1ccc(-c2cn(-c3ccc(I)cc3)c(SCc3ccncc3)n2)cc1,155 to 162 °C
3,CCCCNC(=O)Nc1ccccc1C(=O)NCC1CCN(C(c2ccccc2)c2ccccc2)CC1,197 to 198 °C
4,COC(=O)C(Oc1ccc(Cl)c(C(F)(F)F)c1)c1ccc(Cl)cc1 (centres undefined),58 °C
5,CC=C1CCC2C3CC=C4CC(OC(C)=O)CC(OC(C)=O)C4(C)C3CCC12C (centres undefined),90 to 91 °C
6,CCOC(=O)C(CO)NC(=O)C(CC(=O)O)NC(=O)CCNC(=O)c1ccc(C(=N)N)cc1 (centres undefined),201 to 203 °C
7,CS(=O)(=O)O[C@@H](COC(c1ccccc1)(c1ccccc1)c1ccccc1)C[C@@H]1c2ccccc2Oc2ccc(F)cc2[C@H]1N=[N+]=[N-],55 to 56 °C
8,COc1cc(C=C(C(C)=O)C(C)=O)ccc1O,135 to 137 °C
9,CCc1cccc2c(C(C)=CC(=O)O)cc(OC)c(O)c12,114 to 115 °C
10,Nc1nc(-n2cc(C(=O)O)c(=O)c3c(F)c(F)c(F)c(F)c32)c(F)cc1F,236 to 242 °C
11,COC(=O)CCC(C)C(=O)O (centres undefined),97 to 99 °C
12,CCN1C(=O)C(C(N)=O)(c2ccc(Cl)c(Cl)c2)OS1=O (centres undefined),127 to 128 °C
13,CCCC[C@]1(CC)CS(=O)(=O)c2cc3c(cc2[C@@H](c2ccccc2)N1)OCO3,71 to 73 °C
14,Cc1ccc(N(C(=O)CCl)c2c(Cl)cccc2Cl)cc1,130 °C
15,COC1CCN(c2cc(NC(=O)OC(C)(C)C)c(NC(=O)CC(=O)c3cccc(C#N)c3)cc2C#Cc2ccccc2)CC1,97 to 100 °C
16,CCOC(=O)C1=C(COCC=NO)NC(C)=C(C(=O)OC)C1c1ccccc1Cl (centres undefined),161 to 162 °C
17,[N-]=[N+]=NS(=O)(=O)c1cccc(C(=O)O)c1,122 to 127 °C
18,Cc1nc(-c2c(Cl)cc(C(F)(F)F)cc2Cl)[nH]c1S(=O)(=O)Cl,227 to 230 °C
19,CCCCCCCCCCCCCCCCCC(=O)Nc1cccc([N+](=O)[O-])c1,75 to 76 °C
20,OC(CCc1ccccc1)c1cnc2sc3ccccc3n12 (centres undefined),174 to 175 °C
21,N#Cc1cc(Cl)c(-n2ncc(-c3nc(C#N)c(C#N)[nH]3)n2)c(Cl)c1,183 to 185 °C

row,Compound,melting point
1,Cn1c(C#N)c(F)n(-c2ccc(Cl)cc2)c1=O,105 °C
2,CCCCCCCCCCOc1ccc(-c2ccc(CCCCC(C)O)cc2)cc1 (centres undefined),92 to 93 °C
3,"CC(Oc1cccc(C=Cc2ccc3ccc(Cl)cc3n2)c1)C(=O)O (single isomer, unassigned; (-))",103 to 105 °C
4,COP(=O)(OC)C(O)=Cc1cccc(Cl)c1,136 to 138 °C
5,COc1cc(Oc2cccc(C(F)(F)F)c2)nc(C(=O)NCc2ccccc2)c1,87 to 92 °C
6,CCCc1c(OCCCCOc2ccc(Sc3ccccc3CC(=O)O)cc2)ccc(C(C)=O)c1O,76 to 78 °C
7,Cc1ccc(CSC(=S)N2Cc3[nH]c4ccccc4c3CC2C(=O)O)cc1 (centres undefined),188 to 190 °C
8,CN(CC1Nc2cc(Cl)c(S(N)(=O)=O)cc2S(=O)(=O)N1)C(=O)CBr (centres undefined),150 to 152 °C
9,CCNC(=O)/C=C/CSc1nc(N)cc(Cl)n1,160 to 161 °C
10,NC(=NC(=O)c1nc(Cl)c(N)nc1N)NCCCCc1ccc(OCC(=O)Nc2ccccc2)cc1,168 to 170 °C
11,O=[N+]([O-])c1cccc(CO)c1Cl,69 to 70 °C
12,C#CCn1c(-c2ccccc2)nn(C(C)(C)C)c1=O,82 to 83 °C
13,CNC(=O)N1CC(Oc2ccc(C(F)(F)F)cc2)C1,154 to 157 °C
14,CCc1cccc2c(NC(=O)C[C@H]3O[C@H](c4cccc(OC)c4OC)c4cc(Cl)ccc4N(CC(C)(C)CO)C3=O)c(C(=O)O)oc12,188 to 189 °C
15,Fc1cccc(F)c1-c1ncc(C=Cc2ccc(Cl)cc2)nn1,135 to 140 °C
16,CNC(=O)C(Cc1ccc(OC)cc1)NC(=O)C(CC(C)C)C(S)CC(=O)N1CCN(C)CC1 (centres undefined),65 to 68 °C
17,O=C1NC(=O)c2c1c(-c1c(O)cccc1Cl)cc1[nH]c3ccc(O)cc3c21,228 to 235 °C
18,COc1cc2c(c(C)c1C)C(O)CC2c1c[nH]cn1 (centres undefined),184 to 189 °C
19,CC(C)c1csc(/C=C/c2cccc(N)c2)n1,62 to 63 °C

# The next lines start with the values.
row,melting point,Compound
1,146 to 148 °C,C1=C(CCCN2CCCCC2)c2ccccc2C12CCCCC2
2,204 to 206 °C,CC(C)Oc1ccc(-c2nn(C(C)c3oc4ccccc4c(=O)c3-c3cccc(F)c3)c3ncnc(N)c23)cc1F (centres undefined)
3,129 to 130 °C,CC(C)c1ccc2nc3c(C(=O)NCCCCc4cccnc4)cccn3c(=O)c2c1
4,228 to 230 °C,CS(=O)c1cncc(-c2nc(=O)c3ccccc3s2)n1 (centres undefined)
5,203 to 204 °C,Cc1cccc(-c2nc3cccnn3c2-c2ccnc(NC(=O)C3CC3)c2)c1
6,289 to 290 °C,CC1(C)Cc2c(c(N3CCCC3)nc3sc4c(NCc5cccnc5)ncnc4c23)CO1
7,138 to 141 °C,CCCCc1nc(C(C)(C)O)c(C(=O)O)n1Cc1ccc(-c2ccccc2-c2nnn[nH]2)cc1
8,150 °C,COc1ccc2[nH]cc(C3CCN(CCCCN4C(=O)CC5(CCCC5)CC4=O)CC3)c2c1
9,102 to 103 °C,CC(=O)c1sc(Oc2ccc3c(c2)OCO3)c2c1CCc1cnn(C)c1-2
10,112 to 120 °C,CC1(C)CC(O)(C(F)(F)F)C(Nc2cccc3[nH]ncc23)c2ccc(Cl)c(O)c21 (centres undefined)
11,215 °C,CC(C)Cc1nc2ccc(C(c3cccc(Cl)c3)n3ccnc3)cc2[nH]c1=O (centres undefined)
12,177 to 178 °C,CN(C)c1cc(-c2nnn(Cc3ccc(C(=O)O)cc3)n2)ccc1OC(=O)C(C)(C)C
13,233 °C,CN1CC=C(C2=C(C#N)C(c3cccc(C#N)c3Br)c3c[nH]nc3N2)CC1 (centres undefined)
14,225 to 227 °C,COCCOc1cc(OC)c2c(=O)[nH]c(-c3ccc(N4C[C@@H](C)N(C(C)=O)[C@@H](C)C4)cc3)nc2c1
15,171 to 172 °C,CC(=O)Nc1ccc(C(=O)NCc2ccc(-n3c(-c4cccnc4N)nc4cc(C)cnc43)cc2)cc1
16,151 °C,Cc1cc2cc(CN3CCCCCC3)cnc2cc1NC(=O)c1ccc(-c2ccccc2)cc1F
17,260 to 264 °C,CC(c1ccc(CCn2c(=O)[nH]c3cc(-c4ccc(F)cc4)sc3c2=O)cc1)N1CCCC1 (centres undefined)

row,melting point,Compound
1,97 to 98 °C,Cc1oc(-c2ccccc2)nc1COc1ccc(Cn2cc(CCC(=O)O)c(C(C)C)n2)cc1
2,254 °C,CC(C)(C)c1ccc(COc2cc(C(O)C#Cc3ccc(C(=O)O)cc3)cc3c2C(C)(C)CCC3(C)C)cc1 (centres undefined)
3,> 260 °C,NC(=O)c1sc2cnccc2c1Oc1ccc(C(=O)N2CCOCC2)cc1
4,164 to 168 °C,COc1cc(Cc2cnc(N)nc2N)cc(OC)c1
5,135 to 137 °C,CC(C)(C)C(=O)SCC1CCCCCCCSC[C@@H](C(=O)OCc2ccccc2)NC1=O (some centres undefined)
6,171 to 172 °C,Cc1cc(C)n2nc(-c3ccccc3)c(CC(=O)N(C)C)c2n1
7,78 to 81 °C,O=C(c1cccs1)c1cnn2c(-c3cccc(NCC4CC=CCC4)c3)ccnc12 (centres undefined)
8,104 °C,CCCc1nc(NC2CC2)nc(N2CCOCC2)n1
9,181 to 185 °C,CCOC(=O)c1nc2ncnc(NCc3ccccc3)c2[nH]1
10,191 to 193 °C,Cc1[nH]cnc1CCc1ccc2nc(N)sc2c1
11,64 to 66 °C,CC1(C)CCC(C)(C)c2cc(S(=O)(=O)n3c(CCCC(=O)O)cc4cc(Cl)ccc43)ccc21
12,111 to 112 °C,Cc1cc(C(F)(F)F)cc(Oc2ccc(CCNc3ncnc4scnc34)cc2)n1
13,282 to 284 °C,COc1ccc2c(=O)c3oc4c5ccccc5ccc4c3oc2c1
14,199 °C,CN(C)CCCOc1ccc(-c2ccc(C(=O)O)cc2)cc1-c1ccc2c(c1)C(C)(C)CCC2(C)C
15,198 °C,CN1C(=O)C(Br)=C(c2cn(S(=O)(=O)c3ccccc3)c3ncccc23)C1=O
16,198 to 202 °C,COc1ccc(Cn2c(N)c(NC(=O)C(C)(C)OCc3ccccc3)c(=O)[nH]c2=S)cc1OC1CCCC1
